Results on two molecules are retold here after US20060111305A1, “Metabolites of certain [1,4]diazepino[6,7,1-ij]quinoline derivatives and methods of preparation and use thereof” (Wyeth, priority 2004, published 2006).

The structures appear in SMILES notation.

Data set [1] deals with UGT (UDPGA-dependent glucuronidation). The data set can be described thus: Incubation of [14C]DCDQ with human liver microsomes (Km values, metabolite formation). The note with it: pH 7.4; 0.5 mg/mL human liver microsomes, [14C]DCDQ 0.5-100 μM, UDPGA, 10 min. The format is in vitro ADME. How it is done: [^14C]DCDQ was mixed with non-radiolabeled DCDQ (1:3 or 1:5) in the incubations. Microsomal incubations consisted of [^14C]DCDQ, magnesium chloride (10 mM) and liver microsomes incubated in 0.5 mL of 0.1 M potassium phosphate buffer, pH 7.4. [^14C]DCDQ (20 μL) in water was added to the incubation tubes containing buffer, magnesium chloride solution and microsomes. After mixing, the tubes were pre-incubated for 2 minutes in a shaking water bath at 37° C. The reactions were initiated by the addition of UDPGA or the NADPH regenerating system. UDPGA was added to incubations as a 50 μL aliquot of a 20 mM solution in water, to give a final concentration of 2 mM. An NADPH regenerating system (30 μL) was added to incubations to evaluate CYP450-mediated metabolism. The NADPH regenerating system consisted of glucose-6-phosphate (2 mg/mL), glucose-6-phosphate dehydrogenase (0.8 units/mL) and NADP^+ (2 mg/mL). Control incubations were conducted under the same conditions, but without the NADPH generating system, UDPGA or microsomes. All incubations were performed in duplicate. Incubations were stopped by the addition of 0.5 mL ice-cold methanol. Samples were vortex-mixed. Denatured proteins were separated by centrifugation at 4300 rpm and 4° C. for 10 minutes (Model T21 super centrifuge, Sorvall). The protein pellets were extracted with 0.5 mL of methanol. The supernatant was combined for each sample, mixed and evaporated to a volume of about 0.3 mL under a nitrogen stream in a Zymark TurboVap LV evaporator (Caliper Life Science, Hopkinton, Mass.). The concentrated sample was centrifuged and aliquots were radioassayed and analyzed by HPLC. This method recovered an average of 92.1% of the radioactivity from the reaction mixture.
Initial rate conditions were determined for DCDQ metabolism in incubations with human liver microsomes in the presence of NADPH or UDPGA. Incubations for the time course study contained 20 μM of [^14C]DCDQ and 0.5 mg/mL of microsomal proteins, and were incubated at 37° C. with mild shaking for 0, 5, 10, 20, 30, 40, 50 and 60 minutes. The protein dependence study was conducted with 20 μM of [^14C]DCDQ incubated for 20 minutes with 0, 0.1, 0.25, 0.5, 0.75 and 1.0 mg/mL of microsomal proteins.
The Km values were determined with 0.5 mg/mL of human liver microsomes incubated with [^14C]DCDQ for 20 minutes with the NADPH regenerating system or for 10 minutes with UDPGA. [^14C]DCDQ concentrations used were 0.5,1, 5, 10, 25, 50, 75 and 100 μM.
To evaluate species differences in cytochrome P450- and UGT-mediated metabolism, [^14C]DCDQ was incubated for 20 minutes with 0.5 mg/mL liver microsomal proteins from mice, rats, dogs or humans in the presence of the NADPH regenerating system or UDPGA. The assay conditions were the same as described above, and DCDQ concentrations were 12 μM and 56 μM for cytochrome P450- and UGT-mediated metabolism, respectively.
A Waters model 2690 HPLC system (Waters Corp., Milford, Mass.) with a built-in autosampler was used for analysis. Separations were accomplished on a Phenomenex Luna C18(2) column (2×150 mm, 5 μm) (Phenomenex, Torrance, Calif.) coupled with a filter (4×2 mm) cartridge. A variable wavelength UV detector set to monitor 250 nm and Flo-One β Model A525 radioactivity flow detector (Perkin Elmer) with a 250 μL LQTR flow cell were used for data acquisition. The flow rate of Ultima Flow M scintillation fluid was 1 mL/min, providing a mixing ratio of scintillation cocktail to mobile phase of 5:1. The sample chamber in the autosampler was maintained at 4° C., while the column was at ambient temperature of about 20° C. The mobile phase consisted of 10 mM ammonium acetate, pH 4.5 (A) and methanol (B) and was delivered at 0.2 mL/min. The linear gradient conditions were as follows: […]

The conditions of data set [2]: rats, previous mass balance study, oral dose; cited from earlier work.
For data set [3] the following is noted: dog, enteric-coated capsule, mass balance study; cited from earlier work.

`O=C(O)[C@H]1O[C@@H](OC(=O)N2CCN3C[C@@H]4CCC[C@@H]4c4cccc(c43)C2)[C@H](O)[C@@H](O)[C@@H]1O` [Metabolite M6, carbamoyl glucuronide of DCDQ]: the Michaelis-Menten constant (Km) at 10 min in data set [1] is 56.1 µM.

As for `c1cc2c3c(c1)[C@H]1CCC[C@H]1CN3CCNC2` [[^14C]DCDQ], in data set [2], the “dosed radioactivity recovered in urine” value was 64.3%. In data set [3], the “dose recovered in urine” value was 32.7%.
